According to ChEMBL document CHEMBL5291721, “A preclinical secondary pharmacology resource illuminates target-adverse drug reaction associations of marketed drugs” (Nat Commun, 2023):

What was measured:
[1] = target: Voltage-dependent L-type calcium channel subunit alpha-1C (Rattus norvegicus, UniProt P22002); assay type: functional
[2] = target: Neuronal acetylcholine receptor subunit alpha-4 (Homo sapiens, UniProt P43681)
[3] = target: T1, 5-hydroxytryptamine receptor 1A (Homo sapiens, UniProt P08908); assay type: functional, cell-based
T1 sequence (P08908 whole entry): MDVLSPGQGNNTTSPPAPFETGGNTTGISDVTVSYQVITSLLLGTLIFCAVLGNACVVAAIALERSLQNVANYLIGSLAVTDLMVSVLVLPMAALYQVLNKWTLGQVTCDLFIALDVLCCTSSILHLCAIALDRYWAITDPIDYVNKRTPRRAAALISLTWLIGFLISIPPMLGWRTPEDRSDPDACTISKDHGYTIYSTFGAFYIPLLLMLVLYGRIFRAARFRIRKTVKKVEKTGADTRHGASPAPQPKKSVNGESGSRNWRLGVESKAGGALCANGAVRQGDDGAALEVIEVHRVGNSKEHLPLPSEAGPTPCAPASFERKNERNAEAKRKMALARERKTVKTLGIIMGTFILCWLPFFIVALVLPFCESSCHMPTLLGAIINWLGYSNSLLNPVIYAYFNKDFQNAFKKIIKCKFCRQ

[4] = target: 5-hydroxytryptamine receptor 2B (Homo sapiens, UniProt P41595); assay type: functional, cell-based
5-hydroxytryptamine receptor 2B, sequence (P41595 whole entry): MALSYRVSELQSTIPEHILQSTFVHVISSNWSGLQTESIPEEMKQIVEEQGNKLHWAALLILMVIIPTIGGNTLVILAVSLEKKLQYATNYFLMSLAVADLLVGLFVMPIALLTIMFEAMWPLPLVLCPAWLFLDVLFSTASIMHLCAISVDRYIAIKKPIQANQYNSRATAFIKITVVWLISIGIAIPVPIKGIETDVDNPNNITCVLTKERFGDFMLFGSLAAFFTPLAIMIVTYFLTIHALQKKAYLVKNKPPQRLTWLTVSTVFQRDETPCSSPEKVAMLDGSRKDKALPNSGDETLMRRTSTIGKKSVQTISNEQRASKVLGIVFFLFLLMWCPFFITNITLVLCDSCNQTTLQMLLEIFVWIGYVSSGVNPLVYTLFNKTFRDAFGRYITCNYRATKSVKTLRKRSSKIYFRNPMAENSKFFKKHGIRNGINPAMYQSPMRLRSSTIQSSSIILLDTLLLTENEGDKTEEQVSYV

Progesterone receptor = target: T2, Progesterone receptor (Homo sapiens, UniProt P06401); assay type: functional
T2 sequence (P06401 whole entry): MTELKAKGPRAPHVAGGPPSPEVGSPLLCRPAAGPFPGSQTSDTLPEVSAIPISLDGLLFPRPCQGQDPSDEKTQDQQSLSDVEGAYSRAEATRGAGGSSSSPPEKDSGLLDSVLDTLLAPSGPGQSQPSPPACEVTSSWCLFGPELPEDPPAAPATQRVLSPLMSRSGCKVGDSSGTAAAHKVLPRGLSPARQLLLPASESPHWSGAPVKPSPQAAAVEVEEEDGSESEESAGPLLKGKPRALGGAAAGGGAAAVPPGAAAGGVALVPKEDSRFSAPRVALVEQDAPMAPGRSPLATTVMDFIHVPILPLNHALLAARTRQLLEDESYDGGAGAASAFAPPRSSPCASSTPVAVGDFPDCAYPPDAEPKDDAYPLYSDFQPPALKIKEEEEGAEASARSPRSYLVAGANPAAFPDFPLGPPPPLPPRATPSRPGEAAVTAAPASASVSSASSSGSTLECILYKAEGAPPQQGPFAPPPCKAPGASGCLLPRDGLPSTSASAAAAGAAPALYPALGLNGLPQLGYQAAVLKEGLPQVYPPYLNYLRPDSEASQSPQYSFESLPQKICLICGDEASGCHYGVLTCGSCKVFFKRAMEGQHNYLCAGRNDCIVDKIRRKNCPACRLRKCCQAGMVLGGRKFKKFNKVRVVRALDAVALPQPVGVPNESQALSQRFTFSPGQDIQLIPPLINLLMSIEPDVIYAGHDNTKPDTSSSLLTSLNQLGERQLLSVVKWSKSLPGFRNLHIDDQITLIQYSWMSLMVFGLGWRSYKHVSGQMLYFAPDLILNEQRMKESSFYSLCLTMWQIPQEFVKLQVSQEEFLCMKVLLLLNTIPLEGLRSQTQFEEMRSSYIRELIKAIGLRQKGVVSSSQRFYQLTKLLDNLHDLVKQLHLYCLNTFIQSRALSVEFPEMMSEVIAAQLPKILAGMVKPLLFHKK

[5] = target: T3, Prostaglandin G/H synthase 1 (Rattus norvegicus, UniProt Q63921); assay type: functional
T3 sequence (Q63921 whole entry): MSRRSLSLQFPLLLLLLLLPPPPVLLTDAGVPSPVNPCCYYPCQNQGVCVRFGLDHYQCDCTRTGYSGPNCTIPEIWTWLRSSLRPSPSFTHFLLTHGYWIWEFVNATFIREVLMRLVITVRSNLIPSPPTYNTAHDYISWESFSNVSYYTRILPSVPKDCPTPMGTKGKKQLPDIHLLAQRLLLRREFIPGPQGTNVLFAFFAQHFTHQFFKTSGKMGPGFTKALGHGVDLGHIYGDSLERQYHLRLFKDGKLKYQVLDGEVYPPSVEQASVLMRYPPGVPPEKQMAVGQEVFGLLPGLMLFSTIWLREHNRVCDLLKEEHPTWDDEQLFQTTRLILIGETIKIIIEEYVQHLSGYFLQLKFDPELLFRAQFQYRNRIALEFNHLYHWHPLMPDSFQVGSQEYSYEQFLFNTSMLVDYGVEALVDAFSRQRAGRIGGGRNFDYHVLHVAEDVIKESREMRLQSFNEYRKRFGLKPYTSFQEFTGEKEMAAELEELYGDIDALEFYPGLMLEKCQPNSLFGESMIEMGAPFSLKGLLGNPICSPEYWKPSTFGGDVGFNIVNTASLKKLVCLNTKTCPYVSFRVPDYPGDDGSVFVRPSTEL

[6] = target: T4, Equilibrative nucleoside transporter 1 (Homo sapiens, UniProt Q99808)
T4 sequence (Q99808 whole entry): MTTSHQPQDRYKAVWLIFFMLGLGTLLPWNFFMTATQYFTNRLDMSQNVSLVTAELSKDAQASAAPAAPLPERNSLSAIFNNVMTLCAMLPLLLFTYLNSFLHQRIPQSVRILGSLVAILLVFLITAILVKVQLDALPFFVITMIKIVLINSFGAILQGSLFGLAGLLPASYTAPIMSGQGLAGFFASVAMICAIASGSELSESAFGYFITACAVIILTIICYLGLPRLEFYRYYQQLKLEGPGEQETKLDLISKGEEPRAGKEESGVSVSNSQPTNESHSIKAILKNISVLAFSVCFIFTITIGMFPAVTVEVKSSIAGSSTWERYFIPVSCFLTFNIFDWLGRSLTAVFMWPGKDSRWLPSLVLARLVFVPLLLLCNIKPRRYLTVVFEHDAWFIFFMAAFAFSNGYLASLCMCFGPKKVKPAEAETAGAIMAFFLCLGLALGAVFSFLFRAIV

Thromboxane A2 receptor = target: T5, Thromboxane A2 receptor (Homo sapiens, UniProt P21731)
T5 sequence (P21731 whole entry): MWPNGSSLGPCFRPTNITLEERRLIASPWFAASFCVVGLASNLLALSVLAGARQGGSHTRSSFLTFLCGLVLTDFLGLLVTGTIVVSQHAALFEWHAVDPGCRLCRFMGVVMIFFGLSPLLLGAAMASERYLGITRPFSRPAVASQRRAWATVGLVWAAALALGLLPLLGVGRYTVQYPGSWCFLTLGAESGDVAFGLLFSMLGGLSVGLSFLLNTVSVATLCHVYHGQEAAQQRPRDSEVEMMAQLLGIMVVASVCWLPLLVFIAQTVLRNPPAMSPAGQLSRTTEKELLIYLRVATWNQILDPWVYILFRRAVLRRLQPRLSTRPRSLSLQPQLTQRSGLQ
Also: assay procedure not described here.

Voltage-dependent L-type calcium channel subunit alpha-1C, sequence (P22002 whole entry): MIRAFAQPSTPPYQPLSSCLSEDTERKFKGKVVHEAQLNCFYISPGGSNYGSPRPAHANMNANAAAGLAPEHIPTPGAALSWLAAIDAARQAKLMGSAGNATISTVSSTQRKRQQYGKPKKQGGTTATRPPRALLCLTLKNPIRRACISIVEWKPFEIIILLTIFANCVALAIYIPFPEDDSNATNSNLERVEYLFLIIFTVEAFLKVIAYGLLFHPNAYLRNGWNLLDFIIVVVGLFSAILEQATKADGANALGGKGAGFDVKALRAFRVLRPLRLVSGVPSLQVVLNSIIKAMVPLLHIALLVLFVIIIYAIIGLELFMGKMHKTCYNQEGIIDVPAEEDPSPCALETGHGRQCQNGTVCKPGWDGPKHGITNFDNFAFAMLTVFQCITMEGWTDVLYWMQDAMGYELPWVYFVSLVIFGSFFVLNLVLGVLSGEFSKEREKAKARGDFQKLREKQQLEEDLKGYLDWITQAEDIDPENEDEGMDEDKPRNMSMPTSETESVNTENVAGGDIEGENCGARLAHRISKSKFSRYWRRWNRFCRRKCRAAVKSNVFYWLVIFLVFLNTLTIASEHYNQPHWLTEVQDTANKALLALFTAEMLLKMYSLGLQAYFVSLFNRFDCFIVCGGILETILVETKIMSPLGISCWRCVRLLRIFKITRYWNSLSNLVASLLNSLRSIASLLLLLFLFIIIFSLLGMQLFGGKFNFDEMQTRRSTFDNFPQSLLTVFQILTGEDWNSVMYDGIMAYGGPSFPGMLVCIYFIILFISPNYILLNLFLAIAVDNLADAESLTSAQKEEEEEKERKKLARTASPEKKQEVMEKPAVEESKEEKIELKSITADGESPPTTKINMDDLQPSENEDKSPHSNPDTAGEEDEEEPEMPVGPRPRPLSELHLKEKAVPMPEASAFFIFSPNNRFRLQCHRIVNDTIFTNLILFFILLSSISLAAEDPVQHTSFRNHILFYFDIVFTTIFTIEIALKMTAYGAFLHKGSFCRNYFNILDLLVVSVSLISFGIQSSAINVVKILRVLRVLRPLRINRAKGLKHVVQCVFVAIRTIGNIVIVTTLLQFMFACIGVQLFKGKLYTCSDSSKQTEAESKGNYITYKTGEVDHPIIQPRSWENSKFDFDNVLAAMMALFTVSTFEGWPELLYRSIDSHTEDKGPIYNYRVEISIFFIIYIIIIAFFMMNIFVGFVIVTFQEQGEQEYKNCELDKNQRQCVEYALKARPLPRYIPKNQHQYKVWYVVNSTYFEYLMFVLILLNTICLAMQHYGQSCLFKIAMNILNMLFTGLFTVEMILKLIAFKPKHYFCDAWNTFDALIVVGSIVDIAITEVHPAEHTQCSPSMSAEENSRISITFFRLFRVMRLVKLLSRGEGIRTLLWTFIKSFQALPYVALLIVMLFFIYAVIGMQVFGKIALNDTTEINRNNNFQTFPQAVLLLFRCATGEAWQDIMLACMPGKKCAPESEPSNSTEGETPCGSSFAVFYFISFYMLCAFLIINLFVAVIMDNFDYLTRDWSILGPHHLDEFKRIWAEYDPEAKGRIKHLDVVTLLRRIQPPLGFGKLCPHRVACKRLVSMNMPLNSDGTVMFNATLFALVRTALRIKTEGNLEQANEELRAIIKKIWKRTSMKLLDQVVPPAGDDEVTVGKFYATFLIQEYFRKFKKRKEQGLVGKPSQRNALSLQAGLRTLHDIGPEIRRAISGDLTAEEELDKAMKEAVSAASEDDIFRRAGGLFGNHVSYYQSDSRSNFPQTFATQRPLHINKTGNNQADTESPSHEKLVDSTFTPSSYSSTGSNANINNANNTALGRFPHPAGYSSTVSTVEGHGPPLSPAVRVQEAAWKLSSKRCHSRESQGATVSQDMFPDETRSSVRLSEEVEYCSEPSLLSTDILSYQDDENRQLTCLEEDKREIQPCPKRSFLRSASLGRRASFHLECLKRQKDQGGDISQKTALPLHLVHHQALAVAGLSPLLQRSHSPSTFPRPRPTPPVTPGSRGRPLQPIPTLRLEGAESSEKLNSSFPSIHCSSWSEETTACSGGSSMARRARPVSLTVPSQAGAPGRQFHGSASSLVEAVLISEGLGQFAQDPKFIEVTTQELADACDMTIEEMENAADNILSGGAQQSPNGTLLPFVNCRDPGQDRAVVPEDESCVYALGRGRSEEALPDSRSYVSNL
Neuronal acetylcholine receptor subunit alpha-4, sequence (P43681 whole entry): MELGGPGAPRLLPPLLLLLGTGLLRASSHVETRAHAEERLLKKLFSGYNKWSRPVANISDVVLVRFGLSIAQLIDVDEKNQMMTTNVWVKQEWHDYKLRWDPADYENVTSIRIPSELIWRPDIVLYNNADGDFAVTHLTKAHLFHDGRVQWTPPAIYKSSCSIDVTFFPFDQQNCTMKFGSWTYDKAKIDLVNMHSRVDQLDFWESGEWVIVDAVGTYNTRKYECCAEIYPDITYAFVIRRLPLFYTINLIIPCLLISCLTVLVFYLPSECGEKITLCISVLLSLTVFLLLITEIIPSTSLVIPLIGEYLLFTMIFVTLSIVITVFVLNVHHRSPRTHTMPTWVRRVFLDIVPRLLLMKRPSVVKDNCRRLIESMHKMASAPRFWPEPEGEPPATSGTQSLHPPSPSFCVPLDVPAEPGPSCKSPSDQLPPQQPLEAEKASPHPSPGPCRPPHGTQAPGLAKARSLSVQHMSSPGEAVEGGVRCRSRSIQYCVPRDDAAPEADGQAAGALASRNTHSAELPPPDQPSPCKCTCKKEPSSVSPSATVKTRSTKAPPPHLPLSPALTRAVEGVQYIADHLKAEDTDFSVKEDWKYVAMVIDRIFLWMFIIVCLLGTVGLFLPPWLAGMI

With Clc1ccccc1C(c1ccccc1)(c1ccccc1)n1ccnc1 [CLOTRIMAZOLE] the AC50 [1] was 13.6 µM, the AC50 [2] was > 10 µM and the AC50 [3] was > 10 µM. For the same compound, the AC50 [4] was > 10 µM.

For Brc1c(NC2=NCCN2)ccc2nccnc12 [BRIMONIDINE], the AC50 [2] was > 30 µM, the AC50 [3] was 5 µM and the AC50 [4] was > 30 µM. The AC50 (Progesterone receptor) was > 30 µM, the AC50 [5] was > 30 µM and the AC50 [6] was > 30 µM.

For CC(CC1c2ccccc2CCc2ccccc21)CN(C)C (stereo unspecified) [BUTRIPTYLINE], the AC50 [4] was > 30 µM.

In the case of COc1ccc2c3c1O[C@H]1[C@@H](O)CC[C@H]4[C@@H](C2)N(C)CC[C@@]341 [DIHYDROCODEINE], the AC50 [3] is reported as > 30 µM and the AC50 [4] is reported as > 30 µM.

In the case of C[C@H]1COc2c(C3(N)CC3)c(F)cc3c(=O)c(C(=O)O)cn1c23 [PAZUFLOXACIN], the AC50 [1] is reported as > 10 µM, the AC50 [2] is reported as > 10 µM and the AC50 [3] is reported as > 10 µM. For the same compound, the AC50 [4] was > 10 µM, the AC50 (Progesterone receptor) was > 30 µM and the AC50 [5] was > 30 µM. The AC50 [6] was > 10 µM and the AC50 (Thromboxane A2 receptor) was > 10 µM.

In the case of NC(=O)OCC(COC(N)=O)c1ccccc1 [FELBAMATE], the AC50 [1] is reported as > 10 µM, the AC50 [2] is reported as > 10 µM and the AC50 [3] is reported as > 10 µM. The AC50 [4] was > 10 µM, the AC50 (Progesterone receptor) was > 10 µM and the AC50 [5] was > 10 µM. For the same compound, the AC50 [6] was > 10 µM and the AC50 (Thromboxane A2 receptor) was > 10 µM.

C#C[C@]1(O)CC[C@H]2[C@@H]3[C@H](C)CC4=C(CCC(=O)C4)[C@H]3CC[C@@]21C [TIBOLONE] was tested, and the AC50 [1] was > 30 µM, the AC50 [2] was > 30 µM and the AC50 [3] was > 30 µM. For the same compound, the AC50 [4] was > 30 µM, the AC50 [5] was 4.5 µM and the AC50 [6] was > 30 µM. For the same compound, the AC50 (Thromboxane A2 receptor) was > 30 µM.

CC/C(=C(\c1ccccc1)c1ccc(OCCN(C)C)cc1)c1ccccc1 [TAMOXIFEN] was tested, and the AC50 [1] was > 10 µM, the AC50 [2] was > 30 µM and the AC50 [3] was > 10 µM. For the same compound, the AC50 [4] was > 10 µM.

For Cc1nnc2n1-c1ccc(Cl)cc1C(c1ccccc1Cl)=NC2 [TRIAZOLAM], the AC50 [1] was > 10 µM, the AC50 [2] was > 10 µM and the AC50 [3] was > 10 µM. The AC50 [4] was > 10 µM, the AC50 [5] was > 30 µM and the AC50 [6] was > 30 µM. For the same compound, the AC50 (Thromboxane A2 receptor) was > 30 µM.

In the case of O=C1C(O)=C([C@H]2CC[C@H](c3ccc(Cl)cc3)CC2)C(=O)c2ccccc21 [ATOVAQUONE], the AC50 [1] is reported as > 30 µM, the AC50 [2] is reported as > 30 µM and the AC50 [3] is reported as > 30 µM. The AC50 [4] was > 30 µM, the AC50 (Progesterone receptor) was > 30 µM and the AC50 [5] was > 30 µM. For the same compound, the AC50 [6] was > 30 µM and the AC50 (Thromboxane A2 receptor) was > 30 µM.

With CC(C)(C)NCC(O)COc1cccc2c1CCC(=O)N2 (stereo unspecified) [CARTEOLOL] the AC50 [1] was > 10 µM, the AC50 [2] was > 10 µM and the AC50 [3] was > 10 µM. The AC50 [4] was > 10 µM, the AC50 (Progesterone receptor) was > 10 µM and the AC50 [5] was > 10 µM. For the same compound, the AC50 [6] was > 10 µM and the AC50 (Thromboxane A2 receptor) was > 10 µM.

Cc1cc(C(C)(C)C)c(O)c(C)c1CC1=NCCN1 [OXYMETAZOLINE] was tested, and the AC50 [3] was 0.0094 µM, the AC50 (Progesterone receptor) was > 30 µM and the AC50 [5] was > 30 µM.

With CC1(C)CCC(CN2CCN(c3ccc(C(=O)NS(=O)(=O)c4ccc(NCC5CCOCC5)c([N+](=O)[O-])c4)c(Oc4cnc5[nH]ccc5c4)c3)CC2)=C(c2ccc(Cl)cc2)C1 [VENETOCLAX] the AC50 (Progesterone receptor) was > 30 µM and the AC50 [5] was > 30 µM.

For Fc1ccc(C(c2ccccc2)(c2ccccc2F)n2ccnc2)cc1 (stereo unspecified) [FLUTRIMAZOLE], the AC50 [1] was > 30 µM, the AC50 [2] was > 30 µM and the AC50 [3] was > 30 µM. The AC50 [4] was > 30 µM, the AC50 (Progesterone receptor) was > 30 µM and the AC50 [5] was > 30 µM. The AC50 [6] was > 10 µM and the AC50 (Thromboxane A2 receptor) was 30 µM.

With Nc1nc(Cl)nc2c1ncn2[C@H]1C[C@H](O)[C@@H](CO)O1 [CLADRIBINE] the AC50 [2] was > 30 µM, the AC50 [3] was > 30 µM and the AC50 [4] was > 30 µM. The AC50 (Progesterone receptor) was > 30 µM, the AC50 [5] was > 30 µM and the AC50 [6] was > 30 µM.

COc1cccc(C2(O)CCCCC2CN(C)C)c1 (stereo unspecified) [TRAMADOL] was tested, and the AC50 [1] was > 10 µM, the AC50 [3] was > 10 µM and the AC50 [4] was > 10 µM. For the same compound, the AC50 [5] was > 30 µM, the AC50 [6] was > 30 µM and the AC50 (Thromboxane A2 receptor) was > 30 µM.

With C[C@@H]1O[C@@H](O[C@@H]2C=C3CC[C@@H]4[C@H](CC[C@]5(C)[C@@H](c6ccc(=O)oc6)CC[C@]45O)[C@@]3(C)CC2)[C@H](O)[C@H](O)[C@H]1O [PROSCILLARIDIN] the AC50 [1] was > 30 µM, the AC50 [2] was > 30 µM and the AC50 [3] was > 30 µM. The AC50 [4] was > 30 µM, the AC50 (Progesterone receptor) was > 30 µM and the AC50 [5] was 13 µM. The AC50 (Thromboxane A2 receptor) was > 30 µM.

NC(=O)CN1CC(O)CC1=O (stereo unspecified) [OXIRACETAM] was tested, and the AC50 [2] was > 30 µM, the AC50 [3] was > 30 µM and the AC50 [4] was > 30 µM. The AC50 (Progesterone receptor) was > 30 µM, the AC50 [5] was > 30 µM and the AC50 [6] was > 30 µM. For the same compound, the AC50 (Thromboxane A2 receptor) was > 30 µM.

For COc1ccc(CCNCC(O)COc2cccc(C)c2)cc1OC (stereo unspecified) [BEVANTOLOL], the AC50 [1] was > 10 µM, the AC50 [2] was > 10 µM and the AC50 [3] was 1.2 µM. For the same compound, the AC50 [4] was 14 µM, the AC50 (Progesterone receptor) was > 10 µM and the AC50 [5] was > 10 µM. The AC50 [6] was > 30 µM and the AC50 (Thromboxane A2 receptor) was > 10 µM.

Cc1c(OCC(F)(F)F)ccnc1C[S+]([O-])c1nc2ccccc2[nH]1 (stereo unspecified) [LANSOPRAZOLE] was tested, and the AC50 [1] was > 10 µM, the AC50 [3] was > 10 µM and the AC50 [4] was > 10 µM. The AC50 [5] was > 30 µM, the AC50 [6] was > 30 µM and the AC50 (Thromboxane A2 receptor) was 3.46 µM.
